Common to all, as to format: biochemical
One assay addresses PI3 Kinase α (Homo sapiens, UniProt P42336). As to the kind of experiment: Fluorescence polarization assay for PI3K. As to the method: (§1) Fluorescence Polarization Assay for PI3K
(§2) This assay is used to determine the IC50 of compounds of the present invention as it identifies inhibitors of PI3 kinase by measuring inhibition.
(§3) Reaction Buffer: 20 mM HEPES, pH 7.5, 2 mM MgCl2, 0.05% CHAPS; and 0.01% BME (added fresh) Stop/Detection Buffer: 100 mM HEPES, pH 7.5, 4 mM EDTA, 0.05% CHAPS; ATP 20 mM in water; PIP2 (diC8, cat# P-4508) 1 mM in water (MW=856.5); GST-GRP 1.75 mg/mL or 1.4 mg/mL in 10% glycerol; Red detector (TAMRA) 2.5 μM; Plate: Nunc 384 well black polypropylene fluorescence plate.
(§4) The assay is run by placing 5 μL of diluted enzyme per well, then 5 μL of diluted compound (or 9.5 μL enzyme then 0.5 μL compound in DMSO) is added and mixed. Then, 10 μL substrate is added to start the reaction. The samples are incubated 30-60 minutes, then the reaction is stopped by adding 20 μL stop/detector mix. PI3K is diluted with reaction buffer (e.g., 5 μL or 7.5 μL PI3K into 620 μL reaction buffer), and 5 μL of diluted enzyme is used per well. 5 μL reaction buffer or drug diluted in buffer (e.g., 4 μL/100 so final DMSO is 1% in reaction) is added to each. Pipetting up and down mixes the samples. Alternatively, the enzyme can be diluted to 1215 μL. In this case 9.8 μL is added per well and 0.2 μL compound is added in DMSO. To prepare 1 mL of substrate solution, 955 μL reaction buffer, 40 μL PIP2, and 2.5 μL ATP are mixed. 10 μL of substrate is added to each well to start the reaction.
(§5) Stop/detector mix is prepared by mixing 4 μL Red detector and 1.6 μL or 2.0 μL GST-GRP with 1 mL Stop buffer, which results in 10 nM probe and 70 nM GST-GRP). 20 μL of the stop/detector mix is added to each well to stop the reaction. The plates are read after 30-90 minutes keeping the red probe solutions dark. For the zero time point, stop/detector mix is added to the enzyme just before adding substrate. For an extra control, stop/detector mix is added to buffer (no enzyme) and substrate or to just buffer (no substrate). […] The recommended reaction has 0.06 μL per 20 μL (0.015 μg/20 μL) or 0.01125 μg/15 μL or 0.75 μg/mL. Plates are read on machines with filters for Tamra. The units are mP with no enzyme controls reading app 190-220 mP units. Fully active enzyme reduces fluorescence polarization down to 70-100 mP after 30 minutes. An active compound raises the mP values halfway to control or to 120-150 mP units.

The next assay has as its target PI3 Kinase γ (Homo sapiens, UniProt P48736). The assay is described as follows: Fluorescence polarization assay for PI3K. As to the method:
as §1, §2, §3, §4, §5

The next assay addresses T1, Human mTOR (Homo sapiens, UniProt P42345).
T1 construct: FLAG
As to the kind of experiment: mTOR kinase assay (DELFIA format, purified enzyme). The note with it: His6-S6K substrate, read-out: TOR Kinase IC50. As to the method:
mTOR Kinase Assay Methods
Human mTOR assays (See Toral-Barza, et al. Biochem Biophys. Res. Commun. 2005 Jun. 24; 332(1):304-10) with purified enzyme are performed in 96-well plates by DELFIA format as follows. Enzymes are first diluted in kinase assay buffer (10 mM HEPES (pH 7.4), 50 mM NaCl, 50 mM β-glycerophosphate, 10 mM MnCl2, 0.5 mM DTT, 0.25 mM microcystin LR, and […]). To each well, 12 μL of the diluted enzyme is mixed briefly with 0.5 μL test inhibitor or control vehicle dimethylsulfoxide (DMSO). The kinase reaction is initiated by adding 12.5 μL kinase assay buffer containing ATP and His6-S6K to give a final reaction volume of 25 μL containing 800 ng/mL FLAG-TOR, […] and […]. The reaction plate is incubated for 2 hours (linear at 1-6 hours) at room temperature with gentle shaking and then terminated by adding 25 μL Stop buffer (20 mM HEPES (pH 7.4), 20 mM EDTA, 20 mM EGTA). The DELFIA detection of the phosphorylated (Thr-389) His6-S6K is performed at room temperature using a monoclonal anti-P(T389)-p70S6K antibody (1A5, Cell Signaling) labeled with Europium-N1-ITC (Eu) (10.4 Eu per antibody, PerkinElmer). The DELFIA Assay buffer and Enhancement solution can be purchased from PerkinElmer. 45 μL of the terminated kinase reaction mixture is transferred to a MaxiSorp plate (Nunc) containing 55 μL PBS. The His6-S6K is allowed to attach for 2 hours after which the wells are aspirated and washed once with PBS. 100 μL of DELFIA Assay buffer with 40 ng/mL Eu-P(T389)-S6K antibody is added. The antibody binding is continued for 1 hour with gentle agitation. The wells are then aspirated and washed 4 times with PBS containing 0.05% Tween-20 (PBST). 100 μL of DELFIA Enhancement solution is added to each well and the plates are read in a PerkinElmer Victor model plate reader. Data obtained is used to calculate enzymatic activity and enzyme inhibition by potential inhibitors.

Molecules are shown by their SMILES. Bounds are passed on as bounds.

Sequence of PI3 Kinase γ (P48736 whole entry): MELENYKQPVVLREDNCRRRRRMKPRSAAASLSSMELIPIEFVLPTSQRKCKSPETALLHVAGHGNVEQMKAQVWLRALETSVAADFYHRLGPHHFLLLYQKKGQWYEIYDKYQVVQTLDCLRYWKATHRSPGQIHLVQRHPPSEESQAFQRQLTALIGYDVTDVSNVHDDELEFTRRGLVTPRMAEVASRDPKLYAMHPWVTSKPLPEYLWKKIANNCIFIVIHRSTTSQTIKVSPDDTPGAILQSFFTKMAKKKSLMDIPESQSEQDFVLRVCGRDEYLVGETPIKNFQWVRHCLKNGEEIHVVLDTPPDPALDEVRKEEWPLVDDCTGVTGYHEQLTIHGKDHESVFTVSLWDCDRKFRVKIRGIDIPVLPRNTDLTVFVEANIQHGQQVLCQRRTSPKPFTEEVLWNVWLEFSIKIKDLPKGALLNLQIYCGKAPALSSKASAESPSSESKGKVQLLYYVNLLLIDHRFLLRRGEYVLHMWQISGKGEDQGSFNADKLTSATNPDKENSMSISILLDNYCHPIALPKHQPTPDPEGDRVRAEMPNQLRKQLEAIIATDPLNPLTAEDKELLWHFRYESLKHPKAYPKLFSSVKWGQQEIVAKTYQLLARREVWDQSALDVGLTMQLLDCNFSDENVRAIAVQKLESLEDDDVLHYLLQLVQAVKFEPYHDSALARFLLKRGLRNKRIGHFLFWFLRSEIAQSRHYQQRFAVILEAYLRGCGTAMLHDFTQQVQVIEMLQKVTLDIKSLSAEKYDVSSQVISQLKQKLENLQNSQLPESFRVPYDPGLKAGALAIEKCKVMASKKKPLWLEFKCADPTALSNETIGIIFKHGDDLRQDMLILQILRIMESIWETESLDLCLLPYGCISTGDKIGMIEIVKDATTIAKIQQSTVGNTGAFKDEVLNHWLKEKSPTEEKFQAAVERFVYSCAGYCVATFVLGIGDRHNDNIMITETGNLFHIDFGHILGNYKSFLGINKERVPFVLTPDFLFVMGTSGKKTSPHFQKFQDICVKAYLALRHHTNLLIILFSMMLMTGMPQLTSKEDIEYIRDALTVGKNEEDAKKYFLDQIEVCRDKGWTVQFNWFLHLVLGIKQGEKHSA
Sequence of PI3 Kinase α (P42336 whole entry): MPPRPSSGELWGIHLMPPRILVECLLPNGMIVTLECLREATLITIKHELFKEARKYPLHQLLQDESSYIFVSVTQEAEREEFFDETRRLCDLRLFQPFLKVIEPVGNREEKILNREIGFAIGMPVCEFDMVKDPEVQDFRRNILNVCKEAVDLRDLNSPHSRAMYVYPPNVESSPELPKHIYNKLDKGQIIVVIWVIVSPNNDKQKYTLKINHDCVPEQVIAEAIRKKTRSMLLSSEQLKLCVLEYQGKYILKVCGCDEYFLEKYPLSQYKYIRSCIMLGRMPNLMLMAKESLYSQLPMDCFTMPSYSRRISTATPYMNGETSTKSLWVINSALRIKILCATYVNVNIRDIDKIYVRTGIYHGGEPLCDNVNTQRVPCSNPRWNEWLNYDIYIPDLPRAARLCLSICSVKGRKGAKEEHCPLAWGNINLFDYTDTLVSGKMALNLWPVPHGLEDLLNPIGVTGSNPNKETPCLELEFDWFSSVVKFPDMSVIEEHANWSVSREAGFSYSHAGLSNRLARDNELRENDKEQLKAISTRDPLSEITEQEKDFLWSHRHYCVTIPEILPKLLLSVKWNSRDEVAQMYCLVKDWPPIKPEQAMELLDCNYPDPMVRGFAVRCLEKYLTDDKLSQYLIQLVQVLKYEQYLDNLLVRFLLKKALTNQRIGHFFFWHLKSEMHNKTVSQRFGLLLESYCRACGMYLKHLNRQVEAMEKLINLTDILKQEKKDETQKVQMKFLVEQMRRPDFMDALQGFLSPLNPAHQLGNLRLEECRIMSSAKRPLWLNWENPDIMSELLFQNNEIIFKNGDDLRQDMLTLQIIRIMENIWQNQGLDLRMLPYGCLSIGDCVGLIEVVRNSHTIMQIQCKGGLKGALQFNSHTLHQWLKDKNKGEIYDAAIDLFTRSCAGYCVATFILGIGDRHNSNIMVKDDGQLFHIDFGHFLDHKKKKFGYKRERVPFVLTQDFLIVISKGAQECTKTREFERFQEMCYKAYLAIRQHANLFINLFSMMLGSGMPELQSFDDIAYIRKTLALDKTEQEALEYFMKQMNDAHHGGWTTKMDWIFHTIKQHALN
Sequence of PI3 Kinase α (P27986 whole entry partner): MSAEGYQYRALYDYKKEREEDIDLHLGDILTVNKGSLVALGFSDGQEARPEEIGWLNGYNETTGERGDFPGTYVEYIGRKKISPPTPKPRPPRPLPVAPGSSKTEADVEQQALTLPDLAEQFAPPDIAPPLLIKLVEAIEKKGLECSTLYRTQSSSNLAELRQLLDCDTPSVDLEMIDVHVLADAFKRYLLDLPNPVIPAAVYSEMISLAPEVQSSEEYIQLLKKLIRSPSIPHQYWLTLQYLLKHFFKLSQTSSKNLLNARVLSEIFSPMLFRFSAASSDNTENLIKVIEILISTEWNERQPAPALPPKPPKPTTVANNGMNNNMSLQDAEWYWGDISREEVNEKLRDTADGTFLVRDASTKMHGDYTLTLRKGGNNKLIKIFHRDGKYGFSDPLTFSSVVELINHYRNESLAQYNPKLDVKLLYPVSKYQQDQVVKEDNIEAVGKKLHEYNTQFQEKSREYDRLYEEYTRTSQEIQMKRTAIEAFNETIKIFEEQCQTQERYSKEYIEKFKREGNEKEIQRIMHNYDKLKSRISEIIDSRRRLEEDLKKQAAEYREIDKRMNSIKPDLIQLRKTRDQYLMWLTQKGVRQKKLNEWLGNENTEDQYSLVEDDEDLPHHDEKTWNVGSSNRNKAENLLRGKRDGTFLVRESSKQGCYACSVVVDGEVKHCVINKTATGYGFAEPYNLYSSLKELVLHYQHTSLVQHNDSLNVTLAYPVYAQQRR

The IC50 is the concentration that gives 50% inhibition. Consider `Oc1cncc(-c2nc(C3=CCOCC3)c3ncn(C4CCN(Cc5cccnc5)CC4)c3n2)c1` [Compound 29, 5-{6-(3,6-dihydro-2H-pyran-4-yl)-9-[1-(pyridin-3-ylmethyl)piperidin-4-yl]-9H-purin-2-yl}pyridin-3-ol], for which the IC50 against PI3 Kinase α was found to be 525 nM; at PI3 Kinase γ, 2490 nM; at Human mTOR, 2400 nM.
In the same order, the values of `OCc1cccc(-c2nc(C3=CCOCC3)c3ncn(C4CCN(Cc5ccc(Br)nc5)CC4)c3n2)c1` [Compound 25, {3-[9-{1-[(6-bromopyridin-3-yl)methyl]piperidin-4-yl}-6-(3,6-dihydro-2H-pyran-4-yl)-9H-purin-2-yl]phenyl}methanol] are 228 nM, 1340 nM and 890 nM.
Turning to `Oc1cccc(-c2nc(C3=CCOCC3)c3nc[nH]c3n2)c1` [Compound 11, 3-[6-(3,6-dihydro-2H-pyran-4-yl)-9H-purin-2-yl]phenol], the IC50 against PI3 Kinase α amounted to 85 nM; at PI3 Kinase γ, 1250 nM; at Human mTOR it was 1400 nM.
Taken in the same sequence, the figures for `OCc1cccc(-c2nc(C3=CCOCC3)c3ncn(C4CCNCC4)c3n2)c1` [Compound 43, {3-[6-(3,6-dihydro-2H-pyran-4-yl)-9-piperidin-4-yl-9H-purin-2-yl]phenyl}methanol] were 574 nM, 2060 nM and > 4000 nM.
In the same order, the values of `OCc1cccc(-c2nc(C3=CCOCC3)c3nn[nH]c3n2)c1` [Compound 49, {3-[7-(3,6-dihydro-2H-pyran-4-yl)-3H-[1,2,3]triazolo[4,5-d]pyrimidin-5-yl]phenyl}methanol] are 390 nM, 1040 nM and 340 nM.
For `OCc1cccc(-c2nc(C3=CCOCC3)c3ncn(CCN4CCCCC4)c3n2)c1` [Compound 45, {3-[6-(3,6-dihydro-2H-pyran-4-yl)-9-(2-piperidin-1-ylethyl)-9H-purin-2-yl]phenyl}methanol], the IC50 against PI3 Kinase α was 1350 nM; at PI3 Kinase γ it was 9000 nM; at Human mTOR it was > 4000 nM.
`Oc1cncc(-c2nc(C3=CCOCC3)c3ncn(C4CCN(Cc5ccc(Br)nc5)CC4)c3n2)c1` [Compound 30, 5-[9-{1-[(6-bromopyridin-3-yl)methyl]piperidin-4-yl}-6-(3,6-dihydro-2H-pyran-4-yl)-9H-purin-2-yl]pyridin-3-ol]: the IC50 on PI3 Kinase α amounted to 275 nM; against PI3 Kinase γ it was 2470 nM; at Human mTOR, 2000 nM.
Consider `OCc1cccc(-c2nc(C3=CCOCC3)c3ncn(C4CCN(Cc5ccc(F)nc5)CC4)c3n2)c1` [Compound 22, {3-[6-(3,6-dihydro-2H-pyran-4-yl)-9-{1-[(6-fluoropyridin-3-yl)methyl]piperidin-4-yl}-9H-purin-2-yl]phenyl}methanol], for which the IC50 amounted to 1050 nM on PI3 Kinase α, 5400 nM on PI3 Kinase γ and 1900 nM on Human mTOR.
As to `Oc1cccc(-c2nc(C3=CCOCC3)c3ncn(CCN4CCCCC4)c3n2)c1` [Compound 46, 3-[6-(3,6-dihydro-2H-pyran-4-yl)-9-(2-piperidin-1-ylethyl)-9H-purin-2-yl]phenol], the IC50 against PI3 Kinase α was 1350 nM; on PI3 Kinase γ it was 15000 nM; on Human mTOR it was > 4000 nM.
Taken in the same sequence, the figures for `Oc1cncc(-c2nc(C3=CCOCC3)c3nn[nH]c3n2)c1` [Compound 50, 5-[7-(3,6-dihydro-2H-pyran-4-yl)-3H-[1,2,3]triazolo[4,5-d]pyrimidin-5-yl]pyridin-3-ol] were 78 nM, 100 nM and 360 nM.
For `Oc1cncc(-c2nc(C3=CCOCC3)c3ncn(C4CCN(Cc5ccccc5)CC4)c3n2)c1` [Compound 28, 5-[9-(1-benzylpiperidin-4-yl)-6-(3,6-dihydro-2H-pyran-4-yl)-9H-purin-2-yl]pyridin-3-ol], the IC50 on PI3 Kinase α is 384 nM; against PI3 Kinase γ, 2400 nM; at Human mTOR, 3600 nM.
In the same order, the values of `O=C(Nc1ccc(-c2nc(C3=CCOCC3)c3ncn(C4CCNCC4)c3n2)cc1)NC1CCNCC1` [Compound 26, 1-{4-[6-(3,6-dihydro-2H-pyran-4-yl)-9-piperidin-4-yl-9H-purin-2-yl]phenyl}-3-piperidin-4-ylurea] are 2670 nM, 7000 nM and > 4000 nM.
As for `Oc1cccc(-c2nc(C3=CCOCC3)c3ncn(C4CCN(Cc5ccco5)CC4)c3n2)c1` [Compound 13, 3-{6-(3,6-dihydro-2H-pyran-4-yl)-9-[1-(2-furylmethyl)piperidin-4-yl]-9H-purin-2-yl}phenol], the IC50 is 832 nM at PI3 Kinase α, 859 nM on PI3 Kinase γ and 1400 nM on Human mTOR.
With `Oc1cncc(-c2nc(C3=CCOCC3)c3ncn(C4CCN(Cc5c[nH]c6ccc(F)cc56)CC4)c3n2)c1` [Compound 33, 5-[6-(3,6-dihydro-2H-pyran-4-yl)-9-{1-[(5-fluoro-1H-indol-3-yl)methyl]piperidin-4-yl}-9H-purin-2-yl]pyridin-3-ol], the IC50 on PI3 Kinase α amounted to 265 nM; at PI3 Kinase γ, 385 nM; at Human mTOR, 12000 nM.
With `Oc1cccc(-c2nc(C3=CCOCC3)c3ncn(C4CCN(Cc5ccc[nH]5)CC4)c3n2)c1` [Compound 15, 3-{6-(3,6-dihydro-2H-pyran-4-yl)-9-[1-(1H-pyrrol-2-ylmethyl)piperidin-4-yl]-9H-purin-2-yl}phenol], the results for the IC50 on PI3 Kinase α, against PI3 Kinase γ and on Human mTOR were 280 nM, 736 nM and 1400 nM, respectively.
In the same order, the values of `CN1CCC(n2cnc3c(C4=CCOCC4)nc(-c4cccc(O)c4)nc32)CC1` [Compound 16, 3-[6-(3,6-dihydro-2H-pyran-4-yl)-9-(1-methylpiperidin-4-yl)-9H-purin-2-yl]phenol] are 1630 nM, 3200 nM and 2300 nM.
On to `OCc1cccc(-c2nc(C3=CCOCC3)c3ncn(C4CCN(Cc5ccccc5)CC4)c3n2)c1` [Compound 21, {3-[9-(1-benzylpiperidin-4-yl)-6-(3,6-dihydro-2H-pyran-4-yl)-9H-purin-2-yl]phenyl}methanol], for which the figures for the IC50 against PI3 Kinase α, at PI3 Kinase γ and at Human mTOR were 952 nM, 4360 nM and 3500 nM, respectively.
Taken in the same sequence, the figures for `O=C(Nc1ccc(-c2nc(C3=CCOCC3)c3ncn(C4CCN(Cc5ccc[nH]5)CC4)c3n2)cc1)NC1CCN(C(=O)OCc2ccccc2)CC1` [Compound 27, benzyl 4-{[(4-{6-(3,6-dihydro-2H-pyran-4-yl)-9-[1-(1H-pyrrol-2-ylmethyl)piperidin-4-yl]-9H-purin-2-yl}phenyl)carbamoyl]amino}piperidine-1-carboxylate] were 3030 nM, 1080 nM and > 4000 nM.

Source of the values: US20090192176A1, “1H-PYRAZOLO[3,4-D]PYRIMIDINE, PURINE, 7H-PURIN-8(9H)-ONE, 3H-[1,2,3]TRIAZOLO[4,5-D]PYRIMIDINE, AND THIENO[3,2-D]PYRIMIDINE COMPOUNDS, THEIR USE AS mTOR KINASE AND PI3 KINASE INHIBITORS, AND THEIR SYNTHESES” (Wyeth, priority 2008, published 2009).
